# Literature values in US11033578B2, “Nutritional supplement for growth enhancement” (Nutritional Growth Solutions LTD, priority 2013, dated 2021).
# How the values were obtained:
# [1] = tested on: initially stunted infants; settings: daily syrup for six months; vs placebo
# children = settings: meta analysis; 95% CI: 0.46, 2.51
compound,measurement,setting,value
zinc [zinc-alone],mean height for age Z-score,[1],decreased to a greater extent than placebo
[Fe] [iron],"increase in hemoglobin concentrations, effect size",children,1.49
